The molecules below were run on Cavia porcellus (assay: Intravenous effective dose against antigen induced bronchoconstriction in the guinea pig). Conditions: not given.
Format: functional

Q: For `CC(c1cc2ccccc2s1)N(O)C(N)=O` (stereo unspecified) [ZILEUTON], which ED50 is on record?
A: 19 mg/kg

Q: Which ED50 does the source give for `NC(=O)N(O)Cc1cccc(OCc2csc(-c3ccccc3)n2)c1` here?
A: 6 mg/kg

These molecules were tested on Cavia porcellus (assay: Intravenous effective dose against antigen induced bronchoconstriction in guinea pig). Conditions: not given.
Format: functional

Q: Which ED50 does the source give for `Cc1oc(-c2ccc(F)cc2)nc1COc1cccc(CN(O)C(N)=O)c1` here?
A: 5 mg/kg

Organism: Homo sapiens
Test: Inhibition of LTB4 biosynthesis at 1 uM, in calcium ionophore-stimulated human whole blood leukocyte (HBL) assay.
Format: functional
Conditions: not given

Q: With `Cc1oc(-c2ccco2)nc1CCOc1ccc(CN(O)C(N)=O)cc1` as the molecule, how does the inhibition at 1 µM read?
A: 64%

Q: `Cc1oc(-c2ccccc2)nc1CCOc1cccc(C(C)N(O)C(N)=O)c1` (stereo unspecified) was tested. Which inhibition at 1 µM did it give?
A: 34%

Q: For `Cc1oc(-c2ccccc2)nc1CCOc1cccc(CN(O)C(N)=O)c1`, which inhibition at 1 µM is on record?
A: 51%

Q: `Cc1oc(-c2ccccc2)nc1COc1cccc(C(C)N(O)C(N)=O)c1` (stereo unspecified) was tested. Which inhibition at 1 µM did it give?
A: 10%

Q: How did the inhibition at 1 µM turn out when `Cc1oc(-c2ccccc2)nc1COc1ccc(C(C)N(O)C(N)=O)cc1` (stereo unspecified) was run?
A: 17%

Q: `NC(=O)N(O)Cc1ccc(OCCc2csc(-c3ccccc3)n2)cc1` was tested. Which inhibition at 1 µM did it give?
A: 19%

Q: Which inhibition at 1 µM does the source give for `Cc1oc(-c2cc(C(F)(F)F)cc(C(F)(F)F)c2)nc1COc1cccc(CN(O)C(N)=O)c1` here?
A: 15%

Q: How did the inhibition at 1 µM turn out when `COc1ccc(-c2nc(CCOc3ccc(CN(O)C(N)=O)cc3)c(C)o2)cc1` was run?
A: 57%

Q: With `Cc1oc(-c2ccc(C(F)(F)F)cc2)nc1COc1cc(F)cc(CN(O)C(N)=O)c1` as the molecule, how does the inhibition at 1 µM read?
A: 15%

Q: `Cc1oc(-c2cccc(C(F)(F)F)c2)nc1COc1cccc(CN(O)C(N)=O)c1` was tested. Which inhibition at 1 µM did it give?
A: 51%

Q: Which inhibition at 1 µM does the source give for `Cc1oc(-c2ccc(SC(F)(F)F)cc2)nc1CCOc1ccc(CN(O)C(N)=O)cc1` here?
A: 50%

Q: With `NC(=O)N(O)Cc1ccc(OCCc2noc(-c3ccccc3)n2)cc1` as the molecule, how does the inhibition at 1 µM read?
A: 70%

Q: `Cc1oc(-c2ccc(F)cc2)nc1CCOc1ccc(CN(O)C(N)=O)cc1` was tested. Which inhibition at 1 µM did it give?
A: 70%

Q: With `COc1ccc(-c2nc(COc3cccc(CN(O)C(N)=O)c3)cs2)cc1` as the molecule, how does the inhibition at 1 µM read?
A: 50%

Q: For `Cc1oc(-c2ccccc2)nc1COc1ccc(CN(O)C(N)=O)cc1`, which inhibition at 1 µM is on record?
A: 50%

Q: With `Cc1oc(-c2ccccc2)nc1COc1cc(F)cc(CN(O)C(N)=O)c1` as the molecule, how does the inhibition at 1 µM read?
A: 70%

Q: `Cc1oc(-c2ccc(C(F)(F)F)cc2)nc1COc1ccc(CN(O)C(N)=O)cc1` was tested. Which inhibition at 1 µM did it give?
A: 34%

Q: How did the inhibition at 1 µM turn out when `Cc1oc(-c2cccs2)nc1CCOc1ccc(CN(O)C(N)=O)cc1` was run?
A: 64%

Q: Which inhibition at 1 µM does the source give for `COc1ccc(-c2nc(COc3ccc(CN(O)C(N)=O)cc3)cs2)cc1` here?
A: 56%

Q: Which inhibition at 1 µM does the source give for `Cc1oc(-c2ccc(C(F)(F)F)cc2)nc1COc1cccc(CN(O)C(N)=O)c1` here?
A: 48%

Q: How did the inhibition at 1 µM turn out when `Cc1oc(-c2cccc3ccccc23)nc1CCOc1ccc(CN(O)C(N)=O)cc1` was run?
A: 42%

Q: Which inhibition at 1 µM does the source give for `COc1cc(CN(O)C(N)=O)cc(OCc2nc(-c3ccc(C(F)(F)F)cc3)oc2C)c1` here?
A: 0%

Q: `Cc1oc(-c2ccc(F)cc2)nc1COc1cccc(CN(O)C(N)=O)c1` was tested. Which inhibition at 1 µM did it give?
A: 74%

Q: `NC(=O)N(O)Cc1cccc(OCc2csc(-c3ccccc3)n2)c1` was tested. Which inhibition at 1 µM did it give?
A: 66%

Organism: Homo sapiens
Test: In vitro inhibitory concentration against LTB4 biosynthesis in calcium ionophore-stimulated human whole blood leukocyte (HBL) assay
Format: functional
Conditions: not given

Q: For `CC(c1cc2ccccc2s1)N(O)C(N)=O` (stereo unspecified) [ZILEUTON], which IC50 is on record?
A: 3 µM

Organism: Rattus norvegicus
Test: Ex vivo oral effective dose against LTB4 biosynthesis in rat blood, after pretreatment period of 3h
Format: functional
Conditions: not given

Q: For `CC(c1cc2ccccc2s1)N(O)C(N)=O` (stereo unspecified) [ZILEUTON], which ED50 is on record?
A: 10.2 mg/kg

Each molecule was assayed on Rattus norvegicus (assay: Ex vivo inhibitory activity at an peroral dose of 25 mg/Kg against LTB4 biosynthesis in rat blood, after pretreatment period of 3h). Conditions: po.
Format: functional

Q: How did the inhibition in vivo at 25 mg/kg turn out when `COc1ccc(-c2nc(CCOc3ccc(CN(O)C(N)=O)cc3)c(C)o2)cc1` was run?
A: 32%

These molecules were tested on Rattus norvegicus (assay: Ex vivo inhibitory activity at an peroral dose of 5 mg/Kg against LTB4 biosynthesis in rat blood, after pretreatment period of 6 hr). Conditions: po.
Format: functional

Q: For `NC(=O)N(O)Cc1ccc(OCCc2noc(-c3ccccc3)n2)cc1`, which inhibition in vivo at 5 mg/kg is on record?
A: 59%

Q: With `Cc1oc(-c2ccccc2)nc1COc1cc(F)cc(CN(O)C(N)=O)c1` as the molecule, how does the inhibition in vivo at 5 mg/kg read?
A: 52%

Q: Which inhibition in vivo at 5 mg/kg does the source give for `Cc1oc(-c2ccc(C(F)(F)F)cc2)nc1COc1ccc(CN(O)C(N)=O)cc1` here?
A: 69%

Q: With `Cc1oc(-c2ccc(C(F)(F)F)cc2)nc1COc1cccc(CN(O)C(N)=O)c1` as the molecule, how does the inhibition in vivo at 5 mg/kg read?
A: 55%

The molecules below were run against T1, Polyunsaturated fatty acid 5-lipoxygenase (Rattus norvegicus) (UniProt P12527) (assay: Activity against LTB4 biosynthesis in the rat RPAR pleurisy model po (10 mg/kg)). Conditions: not given.
T1 sequence (whole entry): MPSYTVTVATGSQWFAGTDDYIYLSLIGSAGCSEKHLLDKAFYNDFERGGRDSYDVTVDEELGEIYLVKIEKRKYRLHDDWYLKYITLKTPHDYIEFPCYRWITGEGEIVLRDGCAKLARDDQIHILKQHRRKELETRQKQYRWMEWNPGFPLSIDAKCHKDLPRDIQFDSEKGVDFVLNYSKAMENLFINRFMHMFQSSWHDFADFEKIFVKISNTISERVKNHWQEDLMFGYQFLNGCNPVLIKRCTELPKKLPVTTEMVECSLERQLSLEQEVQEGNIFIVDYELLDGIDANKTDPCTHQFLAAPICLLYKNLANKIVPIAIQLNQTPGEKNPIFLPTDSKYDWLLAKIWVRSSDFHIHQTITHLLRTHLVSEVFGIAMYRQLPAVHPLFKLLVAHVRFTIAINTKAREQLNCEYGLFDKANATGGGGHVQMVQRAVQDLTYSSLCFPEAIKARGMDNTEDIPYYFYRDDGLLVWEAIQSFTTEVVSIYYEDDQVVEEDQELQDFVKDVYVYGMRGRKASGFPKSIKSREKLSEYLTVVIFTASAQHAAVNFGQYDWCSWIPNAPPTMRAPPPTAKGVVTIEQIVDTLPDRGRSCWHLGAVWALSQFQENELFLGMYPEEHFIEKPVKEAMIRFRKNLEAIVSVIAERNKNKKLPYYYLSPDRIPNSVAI
Format: functional, organism-based

Q: `Cc1oc(-c2ccccc2)nc1COc1ccc(CN(O)C(N)=O)cc1` was tested. Which inhibition did it give?
A: 36%

Q: With `Cc1oc(-c2ccccc2)nc1COc1cc(F)cc(CN(O)C(N)=O)c1` as the molecule, how does the inhibition read?
A: 16%

Q: How did the inhibition turn out when `Cc1oc(-c2ccc(C(F)(F)F)cc2)nc1COc1ccc(CN(O)C(N)=O)cc1` was run?
A: 45%

Q: How did the inhibition turn out when `Cc1oc(-c2ccc(C(F)(F)F)cc2)nc1COc1cccc(CN(O)C(N)=O)c1` was run?
A: 59%

Q: Which inhibition does the source give for `Cc1oc(-c2ccc(F)cc2)nc1COc1cccc(CN(O)C(N)=O)c1` here?
A: 37%

Q: Which inhibition does the source give for `NC(=O)N(O)Cc1cccc(OCc2csc(-c3ccccc3)n2)c1` here?
A: 40%

What follows are molecules tested on Rattus norvegicus (assay: Activity against LTB4 biosynthesis in the rat RPAR pleurisy model po (25 mg/kg)). Conditions: not given.
Format: functional

Q: Which Inhibition does the source give for `COc1ccc(-c2nc(CCOc3ccc(CN(O)C(N)=O)cc3)c(C)o2)cc1` here?
A: 38%

Q: With `NC(=O)N(O)Cc1ccc(OCCc2noc(-c3ccccc3)n2)cc1` as the molecule, how does the Inhibition read?
A: 19%

Q: For `Cc1oc(-c2ccccc2)nc1COc1ccc(CN(O)C(N)=O)cc1`, which Inhibition is on record?
A: 69%

What follows are molecules tested against T1, Polyunsaturated fatty acid 5-lipoxygenase (Rattus norvegicus) (assay: Ex vivo inhibitory activity at an peroral dose of 10 mg/Kg against LTB4 biosynthesis in rat blood, after pretreatment period of 3h). Conditions: not given.
Format: functional

Q: With `Cc1oc(-c2ccco2)nc1CCOc1ccc(CN(O)C(N)=O)cc1` as the molecule, how does the inhibition read?
A: 41%

Q: `Cc1oc(-c2ccccc2)nc1CCOc1cccc(CN(O)C(N)=O)c1` was tested. Which inhibition did it give?
A: 0%

Q: For `Cc1oc(-c2ccc(F)cc2)nc1CCOc1ccc(CN(O)C(N)=O)cc1`, which inhibition is on record?
A: 66%

Q: Which inhibition does the source give for `Cc1oc(-c2ccccc2)nc1COc1ccc(CN(O)C(N)=O)cc1` here?
A: 84%

Q: `Cc1oc(-c2cccs2)nc1CCOc1ccc(CN(O)C(N)=O)cc1` was tested. Which inhibition did it give?
A: 24%

These molecules were tested against T1, Polyunsaturated fatty acid 5-lipoxygenase (Rattus norvegicus) (assay: Ex vivo inhibitory activity at an peroral dose of 10 mg/Kg against LTB4 biosynthesis in rat blood, after pretreatment period of 6 hr). Conditions: not given.
Format: functional

Q: How did the inhibition turn out when `Cc1oc(-c2cccc(C(F)(F)F)c2)nc1COc1cccc(CN(O)C(N)=O)c1` was run?
A: 0%

Q: Which inhibition does the source give for `Cc1oc(-c2ccc(SC(F)(F)F)cc2)nc1CCOc1ccc(CN(O)C(N)=O)cc1` here?
A: 0%

Q: How did the inhibition turn out when `COc1ccc(-c2nc(COc3cccc(CN(O)C(N)=O)c3)cs2)cc1` was run?
A: 0%

Q: With `Cc1oc(-c2ccccc2)nc1COc1ccc(CN(O)C(N)=O)cc1` as the molecule, how does the inhibition read?
A: 0%

Q: For `COc1ccc(-c2nc(COc3ccc(CN(O)C(N)=O)cc3)cs2)cc1`, which inhibition is on record?
A: 69%

Q: For `NC(=O)N(O)Cc1cccc(OCc2csc(-c3ccccc3)n2)c1`, which inhibition is on record?
A: 80%

Organism: Homo sapiens
Test: Compound at 10 uM was tested in vitro for the inhibition of LTB4 biosynthesis in calcium ionophore-stimulated human whole blood leukocyte (HBL) assay
Format: functional
Conditions: not given

Q: With `Cc1oc(-c2ccccc2)nc1COc1cccc(C(C)N(O)C(N)=O)c1` (stereo unspecified) as the molecule, how does the inhibition at 10 µM read?
A: 80%

Q: Which inhibition at 10 µM does the source give for `Cc1oc(-c2ccccc2)nc1COc1ccc(C(C)N(O)C(N)=O)cc1` (stereo unspecified) here?
A: 57%

Q: For `Cc1oc(-c2cc(C(F)(F)F)cc(C(F)(F)F)c2)nc1COc1cccc(CN(O)C(N)=O)c1`, which inhibition at 10 µM is on record?
A: 57%

Q: With `Cc1oc(-c2ccc(C(F)(F)F)cc2)nc1COc1cc(F)cc(CN(O)C(N)=O)c1` as the molecule, how does the inhibition at 10 µM read?
A: 85%

Q: Which inhibition at 10 µM does the source give for `COc1cc(CN(O)C(N)=O)cc(OCc2nc(-c3ccc(C(F)(F)F)cc3)oc2C)c1` here?
A: 59%

Organism: Rattus norvegicus
Test: Oral effective dose against LTB4 biosynthesis in the rat RPAR pleurisy model
Format: functional
Conditions: not given

Q: Which ED50 does the source give for `CC(c1cc2ccccc2s1)N(O)C(N)=O` (stereo unspecified) [ZILEUTON] here?
A: 7.8 mg/kg

Organism: Cavia porcellus
Test: Oral effective dose against antigen induced bronchoconstriction in the guinea pig
Format: functional
Conditions: not given

Q: How did the ED50 turn out when `CC(c1cc2ccccc2s1)N(O)C(N)=O` (stereo unspecified) [ZILEUTON] was run?
A: 46 mg/kg
